These results are taken from PubChem BioAssay AID256 (DTP/NCI, 2004).

Where “and” joins values, the source holds several entries; their conditions need not be identical. Equal entries are not always repeated. Toxic doses and inconclusive results are not listed.

The test system of this assay is CD2F1 mice, L1210 leukemia ip, survival T/C. The assay can be described thus: NCI In Vivo Anticancer Drug Screen. Data for tumor model L1210 Leukemia (intraperitoneal) in CD2F1 (CDF1) mice. The following applies: higher = longer survival. The method in brief: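 In this screen, transplantable tumors were grown in mice given either the compound or its vehicle. Results were expressed as the treated measurement relative to the control measurement.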

Setting [1] is: endpoint: mean survival time, dose: 100.0 mg/kg/injection, schedule: Q01DX001 (ip), vehicle: saline.
The mark [2] stands for this setting: endpoint: mean survival time, dose: 200.0 mg/kg/injection, schedule: Q01DX001 (ip), vehicle: saline.
[3] abbreviates: endpoint: mean survival time, dose: 400.0 mg/kg/injection, schedule: Q01DX001 (ip), vehicle: saline.
Setting [4] is: endpoint: mean survival time, dose: 25.0 mg/kg/injection, schedule: Q01DX009 (ip), vehicle: saline.
Where [5] appears, read: endpoint: mean survival time, dose: 50.0 mg/kg/injection, schedule: Q04DX003 (ip), vehicle: saline.
Setting [6] is: endpoint: mean survival time, dose: 100.0 mg/kg/injection, schedule: Q04DX003 (ip), vehicle: saline.
Setting [7] is: endpoint: median survival time, dose: 10.0 mg/kg/injection, schedule: Q04DX003 (ip), vehicle: saline.
The mark [8] stands for this setting: endpoint: median survival time, dose: 20.0 mg/kg/injection, schedule: Q04DX003 (ip), vehicle: saline.
[9] abbreviates: endpoint: median survival time, dose: 40.0 mg/kg/injection, schedule: Q04DX003 (ip), vehicle: saline.
[10] abbreviates: endpoint: median survival time, dose: 80.0 mg/kg/injection, schedule: Q04DX003 (ip), vehicle: saline.
Where [11] appears, read: endpoint: mean survival time, dose: 100.0 mg/kg/injection, schedule: Q01DX009 (ip), vehicle: saline with Tween-80.
[12] abbreviates: endpoint: mean survival time, dose: 200.0 mg/kg/injection, schedule: Q01DX009 (ip), vehicle: saline with Tween-80.

As to `Oc1ccccc1NC(=S)Nc1ccccc1`, the T/C was 102 % of control under setting [1], 98 % of control under setting [2] and 100 % of control under setting [3].

On to `c1ccc(N=NC2(c3ccccc3)CC(c3ccccc3)=NN(c3ccccc3)C2NNc2ccccc2)cc1` (configuration not stated), for which the T/C by setting is: (endpoint: mean survival time, dose: 100.0 mg/kg/injection, schedule: Q01DX001 (ip), vehicle: saline with Tween-80) 96 % of control; (endpoint: mean survival time, dose: 200.0 mg/kg/injection, schedule: Q01DX001 (ip), vehicle: saline with Tween-80) 102 % of control; (endpoint: mean survival time, dose: 400.0 mg/kg/injection, schedule: Q01DX001 (ip), vehicle: saline with Tween-80) 96 % of control.

As to `CC(NC(=O)C(CSC(c1ccccc1)(c1ccccc1)c1ccccc1)NC(c1ccccc1)(c1ccccc1)c1ccccc1)C(=O)O` (configuration not stated), under “endpoint: mean survival time, dose: 150.0 mg/kg/injection, schedule: Q01DX001 (ip), vehicle: saline”, the T/C is 96 % of control.

As for `O=C(NC(Cc1ccccc1)C(=O)CCl)OCc1ccccc1` (configuration not stated), the T/C runs as follows: (endpoint: mean survival time, dose: 25.0 mg/kg/injection, schedule: Q04DX003 (ip), vehicle: saline with Tween-80) 97 % of control; (endpoint: mean survival time, dose: 50.0 mg/kg/injection, schedule: Q04DX003 (ip), vehicle: saline with Tween-80) 100 % of control; (endpoint: mean survival time, dose: 100.0 mg/kg/injection, schedule: Q04DX003 (ip), vehicle: saline with Tween-80) 109 % of control.

As to `Cc1ccc[n+](CCCCCCCC[n+]2cccc(C)c2)c1`, the T/C by setting is: (endpoint: mean survival time, dose: 0.5 mg/kg/injection, schedule: Q04DX003 (ip), vehicle: saline) 100 % of control; (endpoint: mean survival time, dose: 1.0 mg/kg/injection, schedule: Q04DX003 (ip), vehicle: saline) 103 % of control; (endpoint: mean survival time, dose: 2.0 mg/kg/injection, schedule: Q04DX003 (ip), vehicle: saline) 106 % of control.

As for `COc1ccc(CC2=NCCc3cc(OC)c(OC)cc32)cc1OC`, the T/C under setting [4] is 95 % of control; the T/C (endpoint: mean survival time, dose: 25.0 mg/kg/injection, schedule: Q04DX003 (ip), vehicle: saline) is 110 % of control; the T/C (endpoint: mean survival time, dose: 50.0 mg/kg/injection, schedule: Q01DX009 (ip), vehicle: saline) is 101 % of control; the T/C under setting [5] is 104 % of control; the T/C under setting [6] is 96 % of control and 103 % of control.

Take `O=C(CC(=O)C(F)(F)F)c1cccs1.O=C(CC(=O)C(F)(F)F)c1cccs1.O=C(CC(=O)C(F)(F)F)c1cccs1.[Sm]`: the T/C was 100 % of control (endpoint: median survival time, dose: 50.0 mg/kg/injection, schedule: Q04DX002 (ip), vehicle: saline with Tween-80); 88 % of control (endpoint: median survival time, dose: 100.0 mg/kg/injection, schedule: Q04DX002 (ip), vehicle: saline with Tween-80); 100 % of control (endpoint: median survival time, dose: 200.0 mg/kg/injection, schedule: Q04DX002 (ip), vehicle: saline with Tween-80).

In the case of `Cc1ccc(S(=O)(=O)/C=C/c2ccccc2)cc1`, the T/C by setting is: under setting [1], 103 % of control; under setting [6], 96 % of control; under setting [2], 108 % of control; (endpoint: mean survival time, dose: 200.0 mg/kg/injection, schedule: Q04DX003 (ip), vehicle: saline) 93 % of control; under setting [3], 100 % of control; (endpoint: mean survival time, dose: 400.0 mg/kg/injection, schedule: Q04DX003 (ip), vehicle: saline) 87 % of control.

In the case of `O=NN(Cc1cccnc1)Cc1cccnc1`, the T/C is 102 % of control (endpoint: mean survival time, dose: 75.0 mg/kg/injection, schedule: Q01DX001 (ip), vehicle: water) and 102 % of control (endpoint: mean survival time, dose: 150.0 mg/kg/injection, schedule: Q01DX001 (ip), vehicle: water).

`COc1ccc(C2(C)OCCCC2([NH-])C[NH-])cc1.[Cl][Pt+2][Cl]` (configuration not stated): the T/C is 105 % of control under setting [7]; 103 % of control under setting [8]; 105 % of control under setting [9]; 100 % of control (endpoint: median survival time, dose: 80.0 mg/kg/injection, schedule: Q04DX003 (ip), vehicle: saline with Tween-80); 95 % of control under setting [10]; 110 % of control (endpoint: median survival time, dose: 160.0 mg/kg/injection, schedule: Q04DX003 (ip), vehicle: saline with Tween-80). In addition, the T/C (endpoint: median survival time, dose: 320.0 mg/kg/injection, schedule: Q04DX003 (ip), vehicle: saline with Tween-80) was 115 % of control.

Consider `CNC(=O)OCC1C(=O)C2C(CN(C)C3=C1C(=O)C(N)=C(C)C3=O)N2C` (configuration not stated), for which the T/C reads like this: (endpoint: mean survival time, dose: 83.0 mg/kg/injection, schedule: Q01DX001 (ip), vehicle: carboxymethylcellulose (CMC)) 106 % of control; (endpoint: mean survival time, dose: 125.0 mg/kg/injection, schedule: Q01DX001 (ip), vehicle: carboxymethylcellulose (CMC)) 102 % of control; (endpoint: mean survival time, dose: 187.0 mg/kg/injection, schedule: Q01DX001 (ip), vehicle: carboxymethylcellulose (CMC)) 118 % of control.

In the case of `CCCCCCOS(=O)OCC(Cl)COC` (configuration not stated), the T/C by setting is: under setting [11], 97 % of control; under setting [12], 94 % of control.

Turning to `O=NO.O=NO.[NH-]C1CCCCC1[NH-].[Pd+2]` (configuration not stated), the T/C by setting is: (endpoint: mean survival time, dose: 3.13 mg/kg/injection, schedule: Q04DX003 (ip), vehicle: dextrose) 92 % of control; (endpoint: mean survival time, dose: 6.25 mg/kg/injection, schedule: Q04DX003 (ip), vehicle: dextrose) 93 % of control; (endpoint: mean survival time, dose: 12.5 mg/kg/injection, schedule: Q01DX001 (ip), vehicle: dextrose) 95 % of control; (endpoint: mean survival time, dose: 12.5 mg/kg/injection, schedule: Q04DX003 (ip), vehicle: dextrose) 98 % of control; (endpoint: mean survival time, dose: 25.0 mg/kg/injection, schedule: Q01DX001 (ip), vehicle: dextrose) 94 % of control; (endpoint: mean survival time, dose: 50.0 mg/kg/injection, schedule: Q01DX001 (ip), vehicle: dextrose) 91 % of control. Also, the T/C reads like this: (endpoint: mean survival time, dose: 50.0 mg/kg/injection, schedule: Q04DX003 (ip), vehicle: dextrose) 95 % of control; (endpoint: mean survival time, dose: 100.0 mg/kg/injection, schedule: Q01DX001 (ip), vehicle: dextrose) 109 % of control; (endpoint: mean survival time, dose: 100.0 mg/kg/injection, schedule: Q04DX003 (ip), vehicle: dextrose) 100 % of control.

Take `CCCCN(Cc1ccccc1)CC(O)C[NH-].CS(C)=O.[Cl-].[Cl-].[Pt+4]` (configuration not stated): the T/C was 100 % of control under setting [7]; 110 % of control under setting [8]; 108 % of control under setting [9]; 103 % of control (endpoint: median survival time, dose: 50.0 mg/kg/injection, schedule: Q04DX003 (ip), vehicle: saline); 109 % of control under setting [10].

With `O=C1CCn2c3ccccc3c3cccc1c32`, the T/C is 101 % of control under setting [11]; 101 % of control under setting [12]; 96 % of control (endpoint: mean survival time, dose: 400.0 mg/kg/injection, schedule: Q01DX009 (ip), vehicle: saline with Tween-80).

In the case of `COC(=O)Nc1nc2ccc(C3(c4ccc(F)cc4)OCCO3)cc2[nH]1`, the T/C reads like this: (endpoint: mean survival time, dose: 1.56 mg/kg/injection, schedule: Q01DX009 (ip), vehicle: saline) 96 % of control; (endpoint: mean survival time, dose: 3.12 mg/kg/injection, schedule: Q01DX009 (ip), vehicle: saline) 91 % of control; (endpoint: mean survival time, dose: 6.25 mg/kg/injection, schedule: Q01DX009 (ip), vehicle: saline) 90 % of control; (endpoint: mean survival time, dose: 12.5 mg/kg/injection, schedule: Q01DX009 (ip), vehicle: saline with Tween-80) 104 % of control; (endpoint: mean survival time, dose: 12.5 mg/kg/injection, schedule: Q01DX009 (ip), vehicle: saline) 94 % of control and 104 % of control; (endpoint: mean survival time, dose: 25.0 mg/kg/injection, schedule: Q01DX009 (ip), vehicle: saline with Tween-80) 106 % of control. For the same compound, the T/C is 105 % of control under setting [4]; 120 % of control (endpoint: mean survival time, dose: 40.0 mg/kg/injection, schedule: Q04DX003 (ip), vehicle: saline); 115 % of control under setting [5]; 151 % of control and 152 % of control (endpoint: mean survival time, dose: 60.0 mg/kg/injection, schedule: Q04DX003 (ip), vehicle: saline); 181 % of control (endpoint: mean survival time, dose: 80.0 mg/kg/injection, schedule: Q04DX003 (ip), vehicle: saline); 181 % of control under setting [6]. Further, the T/C runs as follows: (endpoint: mean survival time, dose: 150.0 mg/kg/injection, schedule: Q01DX009 (oral), vehicle: saline) 156 % of control; under setting [12], 87 % of control; (endpoint: mean survival time, dose: 200.0 mg/kg/injection, schedule: Q01DX009 (oral), vehicle: saline) 156 % of control.

In the case of `CCn1cnccc1=O`, the T/C was 92 % of control (endpoint: mean survival time, dose: 100.0 mg/kg/injection, schedule: Q04DX002 (ip), vehicle: saline); 109 % of control (endpoint: mean survival time, dose: 200.0 mg/kg/injection, schedule: Q04DX002 (ip), vehicle: saline); 115 % of control (endpoint: mean survival time, dose: 300.0 mg/kg/injection, schedule: Q04DX002 (ip), vehicle: saline); 117 % of control (endpoint: mean survival time, dose: 450.0 mg/kg/injection, schedule: Q04DX002 (ip), vehicle: saline).
